The source of these data is US8324212B2, “Compounds for the treatment of hepatitis C” (Bristol-Myers Squibb Company, priority 2010, dated 2012).

Data set [1] concerns the target T1, HCV NS5B RdRp genotype 1b (Hepatitis C virus genotype 1b, UniProt Q9WMX2).
T1 construct: The cDNA encoding the NS5B protein of HCV, genotype 1b; made in house; host or cells: E. coli BL21 (DE3)
As to the kind of experiment: HCV NS5B RdRp enzyme assay. The class given is biochemical. Particulars: standard or modified assay not stated. As for the experimental part: HCV NS5B RdRp cloning, expression, and purification. The cDNA encoding the NS5B protein of HCV, genotype 1b, was cloned into the pET21a expression vector. The protein was expressed with an 18 amino acid C-terminal truncation to enhance the solubility. The E. coli competent cell line BL21 (DE3) was used for expression of the protein. Cultures were grown at 37° C. for ˜4 hours until the cultures reached an optical density of 2.0 at 600 nm. The cultures were cooled to 20° C. and induced with 1 mM IPTG. Fresh ampicillin was added to a final concentration of 50 μg/ml and the cells were grown overnight at 20° C.
Cell pellets (3L) were lysed for purification to yield 15-24 mgs of purified NS5B. The lysis buffer consisted of 20 mM Tris-HCl, pH 7.4, 500 mM NaCl, 0.5% triton X-100, 1 mM DTT, 1 mM EDTA, 20% glycerol, 0.5 mg/ml lysozyme, 10 mM MgCl2, 15 ug/ml deoxyribonuclease I, and Complete TM protease inhibitor tablets (Roche). After addition of the lysis buffer, frozen cell pellets were resuspended using a tissue homogenizer. To reduce the viscosity of the sample, aliquots of the lysate were sonicated on ice using a microtip attached to a Branson sonicator. The sonicated lysate was centrifuged at 100,000×g for 1 hr at 4° C. and filtered through a 0.2 μm filter unit (Corning).
The protein was purified using three sequential chromatography steps: Heparin sepharose CL-6B, polyU sepharose 4B, and Hitrap SP sepharose (Pharmacia). The chromatography buffers were identical to the lysis buffer but contained no lysozyme, deoxyribonuclease I, MgCl2 or protease inhibitor and the NaCl concentration of the buffer was adjusted according to the requirements for charging the protein onto the column. Each column was eluted with a NaCl gradient which varied in length from 5-50 column volumes depending on the column type. After the final chromatography step, the resulting purity of the enzyme is >90% based on SDS-PAGE analysis. The enzyme was aliquoted and stored at −80° C.
Standard HCV NS5B RdRp enzyme assay. HCV RdRp genotype 1b assays were run in a final volume of 60 μl in 96 well plates (Costar 3912). The assay buffer is composed of 20 mM Hepes, pH 7.5, 2.5 mM KCl, 2.5 mM MgCl2, 1 mM DTT, 1.6 U RNAse inhibitor (Promega N2515), 0.1 mg/ml BSA (Promega R3961), and 2% glycerol. All compounds were serially diluted (3-fold) in DMSO and diluted further in water such that the final concentration of DMSO in the assay was 2%. HCV RdRp genotype 1b enzyme was used at a final concentration of 28 nM. A polyA template was used at 6 nM, and a biotinylated oligo-dT12 primer was used at 180 nM final concentration. […] Plates were read on a Packard Top Count NXT after >1 hr incubation at room temperature. […]
IC50 values for compounds were determined using seven different [I]. […]

The next data set relates to HCV replicon. As to the kind of experiment: HCV replicon assay (FRET / luciferase reporter). The class given is cell-based. Particulars: Hepatitis C virus; HCV replicon cells (HUH-7). The source says:
FRET Assay Preparation. To perform the HCV FRET screening assay, 96-well cell culture plates were used. The FRET peptide (Anaspec, Inc.) (Taliani et al., Anal. Biochem. 1996, 240, 60-67) contains a fluorescence donor, EDANS, near one end of the peptide and an acceptor, DABCYL, near the other end. The fluorescence of the peptide is quenched by […] resonance energy transfer (RET) between the donor and the acceptor, but as the NS3 protease cleaves the peptide the products are released from RET quenching and the fluorescence of the donor becomes apparent. The assay reagent was made as follows: 5× cell Luciferase cell culture lysis reagent from Promega (#E153A) diluted to 1× with dH2O, NaCl added to 150 mM final, the FRET peptide diluted to 20 μM final from a 2 mM stock. […]
Assays. […] After reading in a Cytoflour 4000 instrument (PE Biosystems), plates were rinsed with PBS and then used for FRET assay by the addition of 30 ul of the FRET peptide assay reagent described above (FRET Assay Preparation) per well. The plate was then placed into the Cytoflour 4000 instrument which had been set to 340 excite/490 emission, automatic mode for 20 cycles and the plate read in a kinetic mode. Typically, the signal to noise using an endpoint analysis after the reads was at least three-fold. Alternatively, after Alamar blue reading, plates were rinsed with PBS, 50 ul of DMEM (high glucose) without phenol red was added and plates were then used for luciferase assay using the Promega Dual-Glo Luciferase Assay System.
Compound analysis was determined by quantification of the relative HCV replicon inhibition and the relative cytotoxicity values. To calculate cytoxicity values, the average Alamar Blue fluorescence signals from the control wells were set as 100% non-toxic. […]
For orientation: A replicon is a self-replicating genome or part of one, used to study replication in cells.

The subject of a further data set is HCV. Conditions: cited from earlier work.

T1 sequence (Q9WMX2 2420-2992): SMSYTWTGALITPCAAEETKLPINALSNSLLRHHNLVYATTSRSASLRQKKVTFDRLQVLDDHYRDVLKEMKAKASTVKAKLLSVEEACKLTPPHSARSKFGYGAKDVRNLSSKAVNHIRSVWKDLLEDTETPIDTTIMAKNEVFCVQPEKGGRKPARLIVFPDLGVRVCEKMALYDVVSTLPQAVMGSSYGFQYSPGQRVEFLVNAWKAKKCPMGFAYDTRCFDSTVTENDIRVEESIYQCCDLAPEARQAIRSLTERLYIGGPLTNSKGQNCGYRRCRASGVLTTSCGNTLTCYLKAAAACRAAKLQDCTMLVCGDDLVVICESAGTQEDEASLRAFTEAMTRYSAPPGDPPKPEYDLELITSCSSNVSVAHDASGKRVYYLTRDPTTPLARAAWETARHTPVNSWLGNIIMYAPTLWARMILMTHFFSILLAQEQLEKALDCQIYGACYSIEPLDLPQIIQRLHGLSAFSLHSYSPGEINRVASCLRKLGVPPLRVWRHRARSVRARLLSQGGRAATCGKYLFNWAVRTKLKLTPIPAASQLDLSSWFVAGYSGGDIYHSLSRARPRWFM

One may read the IC50 as the concentration needed to halve the response being measured. A word on the EC50: it is the concentration needed to bring the measured effect to its halfway point. Higher therefore signals a less potent agent. In turn, `CNC(=O)c1c(-c2ccc(F)cc2)nn2ncc(-c3cc(C(=O)NC4(c5ccccc5)CC4)ccc3C)cc12` [Example 1, 2-(4-fluorophenyl)-N-methyl-5-(2-methyl-5-(1-phenylcyclopropylcarbamoyl)phenyl)pyrazolo[1,5-b]pyridazine-3-carboxamide] gave a half-inhibitory concentration (IC50) in data set [1] of less than 17 nM. Moreover, the EC50 in the data set on HCV replicon was found to be 5 nM.
In turn, `CNC(=O)c1c(-c2ccc(F)cc2)nn2nccc(-c3cc(C(=O)NC4(c5ccccc5)CC4)ccc3C)c12` [Example 2, 2-(4-fluorophenyl)-N-methyl-4-(2-methyl-5-(1-phenylcyclopropylcarbamoyl)phenyl)pyrazolo[1,5-b]pyridazine-3-carboxamide] yielded an IC50 in data set [1] of 3060 nM.
Consider `CNC(=O)c1c(-c2ccc(F)cc2)nn2ncc(-c3cc(C(=O)NC4(c5ccccc5)CC4)c(OC)cc3C)cc12` [Example 3, 2-(4-fluorophenyl)-5-(4-methoxy-2-methyl-5-(1-phenylcyclopropylcarbamoyl)phenyl)-N-methylpyrazolo[1,5-b]pyridazine-3-carboxamide], for which the concentration for half-maximal inhibition (IC50) in data set [1] amounted to 11 nM. Besides, the response in the data set on HCV replicon was half-maximal at 2 nM (EC50).
The matching figures for `CNC(=O)c1c(-c2ccc(F)cc2)nn2ncc(-c3cc(C(=O)NC4(c5ncccn5)CC4)c(OC)cc3C)cc12` [Example 4, 2-(4-fluorophenyl)-5-(4-methoxy-2-methyl-5-(1-(pyrimidin-2-yl)cyclopropylcarbamoyl)phenyl)-N-methylpyrazolo[1,5-b]pyridazine-3-carboxamide]: 14 nM and 12 nM.
Consider `CNC(=O)c1c(-c2ccc(F)cc2)oc2cc(N(CCO)S(C)(=O)=O)c(C3CC3)cc12` [HCV-796], for which the “toxicity during extended dosing” value in the data set on HCV (patients, extended dosing of the combination regimens) is “hepatic toxicity observed”. Besides, the “HCV RNA levels in patients” value in the data set on HCV (single agent or combined with interferon and ribavirin) is “showed an ability to reduce HCV RNA levels in patients”.
